This passage reports IC50, fold induction and Kd results from patent publication US20220324835A1 (Nurix Therapeutics, Inc., priority 2018, published 2022).

SMILES strings stand for the structures. A value given as a limit tells only on which side of the number the result lay.

Assay [1] deals with T1, Cbl-b (Homo sapiens, UniProt Q13191). Kind of assay: Cbl-b inhibition assay (Cbl-b activity assay, FRET, Biological Example 1; 100 mM NaCl, 60 nM Src kinase). Format: biochemical. Particulars: upper bound stated in text lists; read-out: IC50 values in the Cbl-b inhibition assay of Biological Example 1. The method, boiled down:
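Steps: Src kinase phosphorylates N-terminal biotinylated Avi-tagged Cbl-b; phosphorylated Cbl-b binds Bodipy-fluorescein ubiquitin-loaded UbcH5B; streptavidin-terbium on Cbl-b sits close to the fluorescein label, producing FRET. Inhibitors block UbcH5B-Ub binding.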

Assay [2] relates to T-cell. Kind of assay: IL-2 secretion from T-cells co-stimulated with anti-CD3 and anti-CD28 antibody (Biological Example 2). It counts as cell-based, human. Particulars: Homo sapiens, T-cell, primary human total T-cells, baseline = anti-CD3/anti-CD28 stimulated cells without inhibitor, read-out: IL-2 secretion, Anti-CD3/Anti-CD28 stimulation, fold change over baseline; for fold induction at 0.3 µM: 0.3 μM compound; for fold induction at 1 µM: 1 μM compound; for fold induction at 4 µM: 4 μM compound. The essentials: (§1)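 No assay protocol given; T-cells stimulated with anti-CD3 alone or anti-CD3 plus anti-CD28, with or without Cbl-b inhibitor. Activation read as IL-2 secretion or CD25 surface staining, expressed as fold over baseline from uninhibited cells […].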

Assay [3] deals with T-cell. The assay can be described thus: CD25 cell surface staining on T-cells co-stimulated with anti-CD3 and anti-CD28 antibody (Biological Example 2). Format: cell-based, human. Particulars: Homo sapiens, T-cell, primary human total T-cells, baseline = anti-CD3/anti-CD28 stimulated cells without inhibitor, read-out: CD25 staining, Anti-CD3/Anti-CD28 stimulation, fold change over baseline; for fold induction at 0.3 µM: 0.3 μM compound; for fold induction at 1 µM: 1 μM compound; for fold induction at 4 µM: 4 μM compound. The essentials: as §1

Assay [4] deals with T1, Cbl-b. Kind of assay: Cbl-b activity assay (Cbl-b inhibition assay), TR-FRET of Cbl-b interaction with UbcH5B-Ub. It counts as biochemical. Particulars: assay buffer with 100 mM NaCl, 60 nM Src kinase; read-out: Cbl-b activity IC50. The essentials: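 TR-FRET readout of Cbl-b binding to Bodipy-fluorescein N-terminally labeled Ub conjugated to UbcH5B C85K, measured with compound present. After compound incubation, 60 nM Src kinase with 1 mM ATP and 5 mM MgCl2 (final) was added for 1.5 h, then a further 1 h incubation; asterisked values used 50 mM NaCl buffer and 30 nM Src.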
In general terms: TR-FRET usually uses a lanthanide donor and a delayed reading to cut background.

Assay [5] concerns the target Cbl-b (residues 36-427) (Homo sapiens, UniProt Q13191). Kind of assay: Cbl-b binding assay (SPR, Biacore T200). Particulars: 20° C., 1:1 binding model. The method, boiled down:
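Affinities derived from global 1:1 steady-state or kinetic fits of double-referenced, solvent-corrected SPR data, 20 °C, NeutrAvidin-capture chip. Compound series (top 100 or 50 μM, 8–10 points) injected 50 s, 90–180 s dissociation. Asterisked values used 50 mM instead of 100 mM NaCl and 30 nM Src kinase.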
In general terms: Surface plasmon resonance follows binding to a sensor surface in real time, without labels.

In assay [6] the test system is T-cell. The assay can be described thus: IL-2 secretion from T-cells stimulated with anti-CD3 antibody alone (Biological Example 2). It counts as cell-based. The settings on record: primary human total T-cells, read-out: IL-2 secretion, Anti-CD3 stimulation, fold change over baseline; for fold induction at 1 µM: 1 μM compound; for fold induction at 8 µM: 8 μM compound.

The test system of assay [7] is T-cell. The assay can be described thus: CD25 cell surface staining on T-cells stimulated with anti-CD3 antibody alone (Biological Example 2). The settings on record: primary human total T-cells, baseline = anti-CD3/anti-CD28 stimulated cells without inhibitor, read-out: CD25 staining, Anti-CD3 stimulation, fold change over baseline; for fold induction at 1 µM: 1 μM compound; for fold induction at 8 µM: 8 μM compound. It counts as cell-based.

T1 sequence (Q13191 36-427): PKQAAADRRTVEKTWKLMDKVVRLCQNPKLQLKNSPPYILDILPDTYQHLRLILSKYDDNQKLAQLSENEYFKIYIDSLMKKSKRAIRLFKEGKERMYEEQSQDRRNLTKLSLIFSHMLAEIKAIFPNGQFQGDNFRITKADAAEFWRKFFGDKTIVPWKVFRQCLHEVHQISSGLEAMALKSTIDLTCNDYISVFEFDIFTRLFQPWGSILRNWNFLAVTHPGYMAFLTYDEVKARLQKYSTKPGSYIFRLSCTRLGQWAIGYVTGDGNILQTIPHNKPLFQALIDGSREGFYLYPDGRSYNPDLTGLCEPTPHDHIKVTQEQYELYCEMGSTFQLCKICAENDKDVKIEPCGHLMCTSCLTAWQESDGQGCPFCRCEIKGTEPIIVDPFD
Cbl-b (residues 36-427), sequence (Q13191 36-427): as above

One may read the IC50 as the concentration that inhibits the measured activity by half. Usually Kd stands for the constant that tells how readily two partners part at equilibrium. Read a high Kd as weaker binding. Turning to `Cn1cnnc1C(F)(F)[C@](C)(F)c1cccc(N2Cc3c(cc(CN4CC(F)C4)cc3C(F)(F)F)C2=O)c1` [Compound 451, (R)-6-((3-fluoroazetidin-1-yl)methyl)-2-(3-(1,1,2-trifluoro-1-(4-methyl-4H-1,2,4-triazol-3-yl)propan-2-yl)phenyl)-4-(trifluoromethyl)isoindolin-1-one], the IC50 in assay [1] is at most 300 nM; in assay [4], 100 to 300 nM. Also, the fold induction at 0.3 µM was 1.01 to 2.5 in assay [2] and 1.01 to 1.3 in assay [3]. The fold induction at 1 µM is 5 to 7.5 in assay [2], 1.01 to 1.3 in assay [3], 0.101 to 0.15 in assay [6] and 0.801 to 1 in assay [7]. For the same compound, the fold induction at 4 µM in assay [2] was above 7.5; in assay [3], 1.31 to 1.5. In assay [5], this compound had a Kd below 100 nM. Further, the values for the fold induction at 8 µM in assay [6] and in assay [7] were above 0.201 and above 1, respectively.
On to `Cn1cnnc1C(F)(F)[C@](C)(F)c1cccc(N2Cc3c(cc(CN4CC[C@H](S(C)(=O)=O)C4)cc3C(F)(F)F)C2=O)c1` [Compound 457, 6-(((S)-3-(Methylsulfonyl)pyrrolidin-1-yl)methyl)-2-(3-((R)-1,1,2-trifluoro-1-(4-methyl-4H-1,2,4-triazol-3-yl)propan-2-yl)phenyl)-4-(trifluoromethyl)isoindolin-1-one], for which the IC50 was at most 100 nM in assay [1] and below 100 nM in assay [4]. Moreover, the fold induction at 0.3 µM in assay [2] is 2.51 to 5; in assay [3], 1.01 to 1.3. Moreover, the fold induction at 1 µM lay in the range of 2.51 to 5 in assay [2], 1.01 to 1.3 in assay [3], 0.101 to 0.15 in assay [6] and 0.801 to 1 in assay [7]. The fold induction at 4 µM was above 7.5 in assay [2] and 1.01 to 1.3 in assay [3]. For the same compound, the dissociation constant Kd in assay [5] was below 100 nM. In addition, the fold induction at 8 µM in assay [6] was above 0.201; in assay [7], above 1.
With `Cn1cnnc1C(F)(F)[C@](C)(F)c1cccc(N2Cc3c(cc(CN4CC[C@@H](S(C)(=O)=O)C4)cc3C(F)(F)F)C2=O)c1` [Compound 458, 6-(((R)-3-(Methylsulfonyl)pyrrolidin-1-yl)methyl)-2-(3-((R)-1,1,2-trifluoro-1-(4-methyl-4H-1,2,4-triazol-3-yl)propan-2-yl)phenyl)-4-(trifluoromethyl)isoindolin-1-one], the values for the IC50 in assay [1] and in assay [4] were at most 100 nM and below 100 nM, respectively. For the same compound, the fold induction at 0.3 µM in assay [2] was 2.51 to 5; in assay [3] it was 1.01 to 1.3. Moreover, the fold induction at 1 µM fell in the range of 5 to 7.5 in assay [2], 1.01 to 1.3 in assay [3], 0.151 to 0.2 in assay [6] and 0.801 to 1 in assay [7]. Also, the fold induction at 4 µM is above 7.5 in assay [2] and 1.31 to 1.5 in assay [3]. This compound displayed a Kd in assay [5] below 100 nM. For the same compound, the results for the fold induction at 8 µM in assay [6] and in assay [7] were above 0.201 and above 1, respectively.
On to `Cc1c[nH]nc1C[C@@H](C)c1cccc(N2Cc3c(cc(C(=O)N4C[C@@H](O)C[C@H]4C)cc3C(F)(F)F)C2=O)c1` [Compound 464, 6-((2R,4S)-4-hydroxy-2-methylpyrrolidine-1-carbonyl)-2-(3-((R)-1-(4-methyl-1H-pyrazol-3-yl)propan-2-yl)phenyl)-4-(trifluoromethyl)isoindolin-1-one], for which the IC50 in assay [1] is at most 100 nM; in assay [4], below 100 nM. In addition, the fold induction at 0.3 µM lay in the range of 1.01 to 2.5 in assay [2] and 1.01 to 1.3 in assay [3]. Further, the fold induction at 1 µM in assay [2] is 2.51 to 5; in assay [3], 1.01 to 1.3; in assay [6] it was 0.151 to 0.2; in assay [7] it was above 1. Besides, the fold induction at 4 µM is above 7.5 in assay [2] and 1.31 to 1.5 in assay [3]. In addition, the Kd in assay [5] is below 100 nM. Further, the fold induction at 8 µM was above 0.201 in assay [6] and above 1 in assay [7].
For the compound `C[C@H](Cc1n[nH]cc1C(F)(F)F)c1cccc(N2Cc3c(cc(C(=O)N4CC[C@H](O)C4)cc3C(F)(F)F)C2=O)c1` [Compound 465, 6-((S)-3-hydroxypyrrolidine-1-carbonyl)-4-(trifluoromethyl)-2-(3-((R)-1-(4-(trifluoromethyl)-1H-pyrazol-3-yl)propan-2-yl)phenyl)isoindolin-1-one], the half-maximal inhibitory concentration (IC50) in assay [1] was at most 100 nM; in assay [4], below 100 nM. In addition, the fold induction at 0.3 µM in assay [2] is 1.01 to 2.5; in assay [3], 1.01 to 1.3. Further, the fold induction at 1 µM was 1.01 to 2.5 in assay [2], 1.01 to 1.3 in assay [3], 0.051 to 0.1 in assay [6] and 0.801 to 1 in assay [7]. For the same compound, the fold induction at 4 µM in assay [2] was 2.51 to 5; in assay [3], 1.01 to 1.3. In assay [5], this compound registered an equilibrium dissociation constant (Kd) below 100 nM. Further, the fold induction at 8 µM in assay [6] was 0.151 to 0.2; in assay [7], above 1.
In the case of `C[C@@H](c1cccc(N2Cc3c(cccc3C(F)(F)F)C2=O)c1)C(F)(F)c1nncn1C` [Compound 467a, (S)-2-(3-(1,1-difluoro-1-(4-methyl-4H-1,2,4-triazol-3-yl)propan-2-yl)phenyl)-4-(trifluoromethyl)isoindolin-1-one], the half-maximal inhibitory concentration (IC50) in assay [1] is at most 300 nM; in assay [4] it was 100 to 300 nM. Moreover, the fold induction at 0.3 µM in assay [2] lay within 1.01 to 2.5; in assay [3] it was 1.01 to 1.3. Besides, the fold induction at 1 µM was 1.01 to 2.5 in assay [2], 1.01 to 1.3 in assay [3], below 0.05 in assay [6] and 0.601 to 0.8 in assay [7]. Moreover, the fold induction at 4 µM in assay [2] is 2.51 to 5; in assay [3], 1.01 to 1.3. Moreover, the equilibrium dissociation constant (Kd) in assay [5] lay within 301 to 1000 nM. Further, the fold induction at 8 µM fell in the range of 0.101 to 0.15 in assay [6] and 0.801 to 1 in assay [7].
For the compound `Cn1cnnc1C[C@H](c1cccc(N2Cc3c(cccc3C(F)(F)F)C2=O)c1)C(F)(F)F` [Compound 471a, (R)-2-(3-(1,1,1-trifluoro-3-(4-methyl-4H-1,2,4-triazol-3-yl)propan-2-yl)phenyl)-4-(trifluoromethyl)isoindolin-1-one], the IC50 in assay [1] was at most 300 nM; in assay [4], 100 to 300 nM. For the same compound, the fold induction at 0.3 µM in assay [2] is 1.01 to 2.5; in assay [3], 1.01 to 1.3. Further, the fold induction at 1 µM in assay [2] was 1.01 to 2.5; in assay [3], 1.01 to 1.3; in assay [6] it was 0.051 to 0.1; in assay [7], 0.601 to 0.8. The fold induction at 4 µM in assay [2] was in the range of 1.01 to 2.5; in assay [3], 1.01 to 1.3. Also, the equilibrium dissociation constant (Kd) in assay [5] was 301 to 1000 nM. The figures for the fold induction at 8 µM in assay [6] and in assay [7] were 0.101 to 0.15 and 0.801 to 1, respectively.
For the compound `Cn1cnnc1CC(C)(C)c1cccc(NC(=O)c2cc(C(=O)N3CC[C@H](O)C3)cc(C(F)(F)F)n2)c1` [Compound 475, (S)-4-(3-hydroxypyrrolidine-1-carbonyl)-N-(3-(2-methyl-1-(4-methyl-4H-1,2,4-triazol-3-yl)propan-2-yl)phenyl)-6-(trifluoromethyl)picolinamide], the results for the IC50 in assay [1] and in assay [4] were at most 100 nM and below 100 nM, respectively. Further, the fold induction at 0.3 µM lay in the range of 1.01 to 2.5 in assay [2] and 1.01 to 1.3 in assay [3]. In addition, the fold induction at 1 µM was 2.51 to 5 in assay [2], 1.01 to 1.3 in assay [3], 0.101 to 0.15 in assay [6] and 0.801 to 1 in assay [7]. The results for the fold induction at 4 µM in assay [2] and in assay [3] were 5 to 7.5 and 1.01 to 1.3, respectively. The compound also registered a dissociation constant Kd in assay [5] of 100 to 300 nM. Also, the values for the fold induction at 8 µM in assay [6] and in assay [7] were above 0.201 and above 1, respectively.
